Earlier results on one molecule are cited in patent US20110033506A1, “COMBINATION DOSAGE FORM OF LOW-DOSE MODAFINIL AND LOW-DOSE SILDENAFIL” (priority 2008, published 2011).

Molecules are shown by their SMILES.

This data set relates to hamsters. The following applies: Agostino et al, PNAS 2007.

Consider `CCCc1nn(C)c2c(=O)[nH]c(-c3cc(S(=O)(=O)N4CCN(C)CC4)ccc3OCC)nc12.O=C(O)CC(O)(CC(=O)O)C(=O)O` [Sildenafil, 1-[[3-(6,7-dihydro-1-methyl-7-oxo-3-propyl-1H-pyrazolo[4,3-d]pyrimidin-5-yl)-4-ethoxyphenyl]sulfonyl]-4-methylpiperazine], for which the “re-establishing disrupted circadian rhythms (jet lag)” value is listed as “effective in re-establishing disrupted circadian rhythms”.
